Experimental data taken from patent US9328112B2, “Tetracyclic CDK9 kinase inhibitors” (AbbVie Inc., priority 2014, dated 2016).

Columns and labels:
H929 cells = experiment: Cell viability assay (Cell TiterGlo); type: cell-based; conditions: Homo sapiens, NCI-H929, 24 hours at 37° C., Cell TiterGlo luminescence
Protocol: The cell viability assay was performed using H929 cells. Cells were seeded in 96-well plates at 10,000 cells/well and, after overnight incubation, treated with compounds in a dose response of 3-fold dilutions from 10 μM to 0.005 μM ([…], 0.1% final DMSO concentration). After 24 hours at 37° C., cell viability was measured using Cell TiterGlo reagent (Promega) with a luminescence reader.

CDK9/Cyclin T1 = CDK9/Cyclin T1 (Homo sapiens (Human), UniProt P50750); experiment: CDK9 enzyme assay (LANCE ULight TR-FRET kinase assay); type: biochemical; conditions: 1000 μM ATP, 100 nM ULight MBP, kinase reaction 1 hour
Chain of CDK9/Cyclin T1 (P50750 whole entry): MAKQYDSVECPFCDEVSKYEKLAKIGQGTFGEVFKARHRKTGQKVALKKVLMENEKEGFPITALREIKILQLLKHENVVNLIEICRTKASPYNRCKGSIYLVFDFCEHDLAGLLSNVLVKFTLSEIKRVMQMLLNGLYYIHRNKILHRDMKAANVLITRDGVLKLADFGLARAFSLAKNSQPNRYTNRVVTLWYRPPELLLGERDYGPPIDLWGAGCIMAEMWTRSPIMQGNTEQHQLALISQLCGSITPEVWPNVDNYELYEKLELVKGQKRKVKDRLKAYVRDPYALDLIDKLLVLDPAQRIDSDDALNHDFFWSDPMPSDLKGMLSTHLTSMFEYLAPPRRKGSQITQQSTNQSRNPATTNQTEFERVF
Chain of CDK9/Cyclin T1 (O60563 whole entry partner): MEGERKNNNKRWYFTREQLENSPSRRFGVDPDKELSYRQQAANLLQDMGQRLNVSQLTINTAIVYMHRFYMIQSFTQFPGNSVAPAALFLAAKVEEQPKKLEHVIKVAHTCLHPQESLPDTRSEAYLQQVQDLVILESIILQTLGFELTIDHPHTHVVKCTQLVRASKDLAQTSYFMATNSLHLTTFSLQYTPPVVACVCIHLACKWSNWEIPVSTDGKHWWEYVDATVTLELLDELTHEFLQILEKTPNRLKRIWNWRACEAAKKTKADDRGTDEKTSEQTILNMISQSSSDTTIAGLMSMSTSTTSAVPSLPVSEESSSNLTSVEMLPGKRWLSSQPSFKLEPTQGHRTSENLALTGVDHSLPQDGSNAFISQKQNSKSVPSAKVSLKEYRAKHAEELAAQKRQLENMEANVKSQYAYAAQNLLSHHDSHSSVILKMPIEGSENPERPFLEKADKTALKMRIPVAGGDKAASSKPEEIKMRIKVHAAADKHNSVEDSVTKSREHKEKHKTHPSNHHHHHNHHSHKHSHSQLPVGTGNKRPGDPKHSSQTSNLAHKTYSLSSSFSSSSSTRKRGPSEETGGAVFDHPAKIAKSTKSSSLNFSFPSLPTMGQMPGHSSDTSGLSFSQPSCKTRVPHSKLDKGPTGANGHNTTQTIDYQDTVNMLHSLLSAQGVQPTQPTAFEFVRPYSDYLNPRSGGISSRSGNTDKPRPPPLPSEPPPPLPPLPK
Summary of the method: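 TR-FRET readout (ex 320 nm; em 615/665 nm) after 1 h detection with 0.5 nM europium anti-phospho-MBP antibody in 20 mM EDTA stop buffer. Preceding 1 h kinase step: CDK9/Cyclin T1, ULight-MBP substrate at 100 nM, ATP at 1000 μM, compound pre-diluted in DMSO then buffer.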

Compound `CN1Cc2c(C3=CCC(N[C@@H](Cc4ccc(O)cc4)C(=O)O)CC3)[nH]c3nccc(c23)-c2cc(F)ccc21` (stereo partly drawn) [Example 40, N-[4-(10-fluoro-7-methyl-6,7-dihydro-4H-3,4,7-triazadibenzo[cd,f]azulen-5-yl)cyclohex-3-en-1-yl]-L-tyrosine] has an IC50 (H929 cells) of 320 nM and an IC50 (CDK9/Cyclin T1) of 81 nM.
`CS(=O)(=O)N1CC=C(c2[nH]c3nccc4c3c2CNc2ccc(F)cc2-4)CC1` [Example 5, 10-fluoro-5-[1-(methylsulfonyl)-1,2,3,6-tetrahydropyridin-4-yl]-6,7-dihydro-4H-3,4,7-triazadibenzo[cd,f]azulene] was tested, and the IC50 (H929 cells) was 730 nM and the IC50 (CDK9/Cyclin T1) was 62 nM.
`CN1Cc2c(C3=CCN(CC(=O)N4CCC[C@@H]4CO)CC3)[nH]c3ncc(F)c(c23)-c2cc(F)ccc21` [Example 75, 2-[4-(1,10-difluoro-7-methyl-6,7-dihydro-4H-3,4,7-triazadibenzo[cd,f]azulen-5-yl)-3,6-dihydropyridin-1(2H)-yl]-1-[(2R)-2-(hydroxymethyl)pyrrolidin-1-yl]ethanone] gave an IC50 (H929 cells) of 8 nM and an IC50 (CDK9/Cyclin T1) of 51 nM.
In the case of `CN(C)C(=O)CN1CC=C(c2[nH]c3nccc4c3c2CN(C)c2ccc(F)cc2-4)CC1` [Example 12, 2-[4-(10-fluoro-7-methyl-6,7-dihydro-4H-3,4,7-triazadibenzo[cd,f]azulen-5-yl)-3,6-dihydropyridin-1(2H)-yl]-N,N-dimethylacetamide], the IC50 (H929 cells) is reported as 42 nM and the IC50 (CDK9/Cyclin T1) is reported as 51 nM.
For `CN1Cc2c(C3=CCN([C@H]4CC[C@H](CC(=O)O)CC4)CC3)[nH]c3nccc(c23)-c2cc(F)c(F)cc21` [Example 146, {trans-4-[4-(9,10-difluoro-7-methyl-6,7-dihydro-4H-3,4,7-triazadibenzo[cd,f]azulen-5-yl)-3,6-dihydropyridin-1(2H)-yl]cyclohexyl}acetic acid], the IC50 (H929 cells) was 32 nM and the IC50 (CDK9/Cyclin T1) was 82 nM.
Work on `CN(C)C(=O)CN1C2C=C(c3[nH]c4nccc5c4c3CN(C)c3ccc(F)cc3-5)CC1CCC2` (stereo not shown) [Example 101, 2-[3-(10-fluoro-7-methyl-6,7-dihydro-4H-3,4,7-triazadibenzo[cd,f]azulen-5-yl)-9-azabicyclo[3.3.1]non-2-en-9-yl]-N,N-dimethylacetamide] yielded an IC50 (H929 cells) of 91 nM and an IC50 (CDK9/Cyclin T1) of 110 nM.
For `CN1Cc2c(C3=CCN(CC(=O)N4CC(F)(F)C4)CC3)[nH]c3nccc(c23)-c2cc(F)ccc21` [Example 54, 1-(3,3-difluoroazetidin-1-yl)-2-[4-(10-fluoro-7-methyl-6,7-dihydro-4H-3,4,7-triazadibenzo[cd,f]azulen-5-yl)-3,6-dihydropyridin-1(2H)-yl]ethanone], the IC50 (H929 cells) was 92 nM and the IC50 (CDK9/Cyclin T1) was 63 nM.
`CN1Cc2c(-c3ccc(S(C)(=O)=O)nc3)[nH]c3nccc(c23)-c2cc(F)ccc21` [Example 45, 10-fluoro-7-methyl-5-[6-(methylsulfonyl)pyridin-3-yl]-6,7-dihydro-4H-3,4,7-triazadibenzo[cd,f]azulene] gave an IC50 (H929 cells) of 830 nM and an IC50 (CDK9/Cyclin T1) of 110 nM.
`CN(C)C(=O)CN1CC2C=C(c3[nH]c4nccc5c4c3CN(C)c3ccc(F)cc3-5)CC2C1` (stereo not shown) [Example 77, 2-[5-(10-fluoro-7-methyl-6,7-dihydro-4H-3,4,7-triazadibenzo[cd,f]azulen-5-yl)-3,3a,4,6a-tetrahydrocyclopenta[c]pyrrol-2(1H)-yl]-N,N-dimethylacetamide] was tested, and the IC50 (H929 cells) was 78 nM and the IC50 (CDK9/Cyclin T1) was 46 nM.
With `CN1Cc2c(C3=CCN([C@H]4CC[C@@H](C(=O)O)CC4)CC3)[nH]c3ncc(F)c(c23)-c2ccccc21` [Example 183, cis-4-[4-(1-fluoro-7-methyl-6,7-dihydro-4H-3,4,7-triazadibenzo[cd,f]azulen-5-yl)-3,6-dihydropyridin-1(2H)-yl]cyclohexanecarboxylic acid] the IC50 (H929 cells) was 14 nM and the IC50 (CDK9/Cyclin T1) was 80 nM.
`CN1Cc2c(C3=CCNCC3(C)C)[nH]c3nccc(c23)-c2cc(F)ccc21` [Example 92, 5-(3,3-dimethyl-1,2,3,6-tetrahydropyridin-4-yl)-10-fluoro-7-methyl-6,7-dihydro-4H-3,4,7-triazadibenzo[cd,f]azulene] gave an IC50 (H929 cells) of 1200 nM and an IC50 (CDK9/Cyclin T1) of 420 nM.
With `CN1Cc2c(C3=CCN(C4CCC(=CC(=O)OC(C)(C)C)CC4)CC3)[nH]c3nccc(c23)-c2cc(F)ccc21` (stereo not shown) [Example 175, tert-butyl{4-[4-(10-fluoro-7-methyl-6,7-dihydro-4H-3,4,7-triazadibenzo[cd,f]azulen-5-yl)-3,6-dihydropyridin-1(2H)-yl]cyclohexylidene}acetate] the IC50 (H929 cells) was 490 nM and the IC50 (CDK9/Cyclin T1) was 120 nM.
`CN(CC(O)CO)C(=O)CN1CC=C(c2[nH]c3ncc(F)c4c3c2CN(C)c2ccc(F)cc2-4)CC1` (stereo not shown) [Example 110, 2-[4-(1,10-difluoro-7-methyl-6,7-dihydro-4H-3,4,7-triazadibenzo[cd,f]azulen-5-yl)-3,6-dihydropyridin-1(2H)-yl]-N-(2,3-dihydroxypropyl)-N-methylacetamide] showed an IC50 (H929 cells) of 14 nM and an IC50 (CDK9/Cyclin T1) of 45 nM.
In the case of `CN1Cc2c(C3=C[C@H]4CC[C@@H](C3)N4CC(=O)N3CC(O)C3)[nH]c3nccc(c23)-c2cc(F)ccc21` [Example 80, 2-[(1R,5S)-3-(10-fluoro-7-methyl-6,7-dihydro-4H-3,4,7-triazadibenzo[cd,f]azulen-5-yl)-8-azabicyclo[3.2.1]oct-2-en-8-yl]-1-(3-hydroxyazetidin-1-yl)ethanone], the IC50 (H929 cells) is reported as 190 nM and the IC50 (CDK9/Cyclin T1) is reported as 97 nM.
`CN1Cc2c(C3=CCNCC3)[nH]c3nccc(c23)-c2ccccc21` [Example 158, 7-methyl-5-(1,2,3,6-tetrahydropyridin-4-yl)-6,7-dihydro-4H-3,4,7-triazadibenzo[cd,f]azulene] was tested, and the IC50 (H929 cells) was 20 nM and the IC50 (CDK9/Cyclin T1) was 96 nM.
With `CN1Cc2c(C3=CCN(C4CCC(C(C#N)C(=O)O)CC4)CC3)[nH]c3nccc(c23)-c2cc(F)ccc21` (stereo not shown) [Example 191, cyano{4-[4-(10-fluoro-7-methyl-6,7-dihydro-4H-3,4,7-triazadibenzo[cd,f]azulen-5-yl)-3,6-dihydropyridin-1(2H)-yl]cyclohexyl}acetic acid] the IC50 (H929 cells) was 440 nM and the IC50 (CDK9/Cyclin T1) was 88 nM.
Compound `CN(C)C(=O)CN1CC=C(c2[nH]c3nccc4c3c2CN(C)c2ncccc2-4)CC1` [Example 149, N,N-dimethyl-2-[4-(7-methyl-6,7-dihydro-4H-3,4,7,8-tetraazadibenzo[cd,f]azulen-5-yl)-3,6-dihydropyridin-1(2H)-yl]acetamide] has an IC50 (H929 cells) of 160 nM and an IC50 (CDK9/Cyclin T1) of 110 nM.
Compound `COCCS(=O)(=O)N1CC2C=C(c3[nH]c4nccc5c4c3CN(C)c3ccc(F)cc3-5)CC2C1` (stereo not shown) [Example 69, 10-fluoro-5-{2-[(2-methoxyethyl)sulfonyl]-1,2,3,3a,4,6a-hexahydrocyclopenta[c]pyrrol-5-yl}-7-methyl-6,7-dihydro-4H-3,4,7-triazadibenzo[cd,f]azulene] has an IC50 (H929 cells) of 95 nM and an IC50 (CDK9/Cyclin T1) of 80 nM.
Compound `CN1Cc2c(C3=CCN(S(C)(=O)=O)CC3)[nH]c3ncc(F)c(c23)-c2ccccc21` [Example 161, 1-fluoro-7-methyl-5-[1-(methylsulfonyl)-1,2,3,6-tetrahydropyridin-4-yl]-6,7-dihydro-4H-3,4,7-triazadibenzo[cd,f]azulene] has an IC50 (H929 cells) of 65 nM and an IC50 (CDK9/Cyclin T1) of 40 nM.
In the case of `CN1Cc2c(C3=CCN([C@H]4CC[C@@H](CC(=O)O)CC4)CC3)[nH]c3nccc(c23)-c2cc(F)c(F)cc21` [Example 136, {cis-4-[4-(9,10-difluoro-7-methyl-6,7-dihydro-4H-3,4,7-triazadibenzo[cd,f]azulen-5-yl)-3,6-dihydropyridin-1(2H)-yl]cyclohexyl}acetic acid], the IC50 (H929 cells) is reported as 21 nM and the IC50 (CDK9/Cyclin T1) is reported as 58 nM.
Work on `CN1Cc2c(C3=CCNCC3)[nH]c3nccc(c23)-c2cc(F)ccc21` [Example 1, 10-fluoro-7-methyl-5-(1,2,3,6-tetrahydropyridin-4-yl)-6,7-dihydro-4H-3,4,7-triazadibenzo[cd,f]azulene] yielded an IC50 (H929 cells) of 40 nM and an IC50 (CDK9/Cyclin T1) of 21 nM.
`CN1Cc2c(C3CCNCC3)[nH]c3nccc(c23)-c2cc(F)ccc21` [Example 21, 10-fluoro-7-methyl-5-(piperidin-4-yl)-6,7-dihydro-4H-3,4,7-triazadibenzo[cd,f]azulene] showed an IC50 (H929 cells) of 460 nM and an IC50 (CDK9/Cyclin T1) of 400 nM.
With `CN1Cc2c(C3=CCN([C@H]4CC[C@H](C(=O)O)CC4)CC3)[nH]c3ncc(F)c(c23)-c2ccccc21` [Example 181, trans-4-[4-(1-fluoro-7-methyl-6,7-dihydro-4H-3,4,7-triazadibenzo[cd,f]azulen-5-yl)-3,6-dihydropyridin-1(2H)-yl]cyclohexanecarboxylic acid] the IC50 (H929 cells) was 12 nM and the IC50 (CDK9/Cyclin T1) was 63 nM.
For `CC(C)[C@H](NC1CC=C(c2[nH]c3nccc4c3c2CN(C)c2ccc(F)cc2-4)CC1)C(=O)O` (stereo partly drawn) [Example 34, N-[4-(10-fluoro-7-methyl-6,7-dihydro-4H-3,4,7-triazadibenzo[cd,f]azulen-5-yl)cyclohex-3-en-1-yl]-L-valine], the IC50 (H929 cells) was 92 nM and the IC50 (CDK9/Cyclin T1) was 120 nM.
In the case of `CN1Cc2c(C3=CCCN(CC(=O)N4CC(O)C4)CC3)[nH]c3nccc(c23)-c2cc(F)ccc21` [Example 91, 2-[4-(10-fluoro-7-methyl-6,7-dihydro-4H-3,4,7-triazadibenzo[cd,f]azulen-5-yl)-2,3,6,7-tetrahydro-1H-azepin-1-yl]-1-(3-hydroxyazetidin-1-yl)ethanone], the IC50 (H929 cells) is reported as 220 nM and the IC50 (CDK9/Cyclin T1) is reported as 180 nM.
`CN1Cc2c(C3=CCC(C(=O)N4CC(O)C4)CC3)[nH]c3nccc(c23)-c2cc(F)ccc21` (stereo not shown) [Example 51, [4-(10-fluoro-7-methyl-6,7-dihydro-4H-3,4,7-triazadibenzo[cd,f]azulen-5-yl)cyclohex-3-en-1-yl](3-hydroxyazetidin-1-yl)methanone] showed an IC50 (H929 cells) of 470 nM and an IC50 (CDK9/Cyclin T1) of 110 nM.
